Experimental data taken from article PMC10952535, “The differential binding and biological efficacy of auxin herbicides” (Pest Management Science, 2022).
Like-named read-outs stand apart in the source and are kept apart here.

What was measured:
AtAFB2 [1] = molecular target: T1, AtAFB2 (Arabidopsis thaliana, UniProt Q9LW29); assay: SPR single cycle kinetics, AtAFB2; type: binding
T1 construct: His10 (N, cleaved yes); eGFP (N, cleaved yes); FLAG (N, cleaved yes); made in house; host or cells: baculovirus; Trichoplusia ni Hi5 cells (virus generated in Sf9)
Procedure: (§1) Auxin binding assays using surface plasmon resonance (SPR) were performed on a Biacore 2000 as described previously.[3], [18], [23] Protein was stored on ice and protein concentrations were assayed by A280 nm measurement (nanodrop, Thermo Scientific). Briefly, AtAux/IAA7 degron peptide was immobilized on streptavidin‐coated SPR chips, and binding was measured in the presence of IAA or auxin analogue by recruitment of the TIR1/AFB protein from solution as the co‐receptor complex formed on the chip. Kinetic analyses were performed by single cycle kinetics on a Biacore T200 (Cytiva Life Sciences), titrating compounds against a fixed concentration of TIR1 before injection. The degron peptide density on the chips was controlled so that R max < 300 Response UNits (RU).

[2] = tested on: Arabidopsis thaliana wild type (WT) Col‐0; assay: Foliar efficacy bioassay, wild type; type: in vivo; conditions: foliar application; for GR50 (DW % of NT): dry weight at 14 DAT
Procedure: (§2) Bioassays were carried out with the model species Arabidopsis thaliana. The wild type (WT) Col‐0 line was compared to an afb5‐1 mutant line in a Col‐0 background containing a missense mutation of R609K.[11] A. thaliana seeds were sown on Metro‐mix 360 potting mix (Sungro Horticulture) supplemented with vermiculite and stratified for 3 days at 4 °C in the dark. Flats were moved to a growth chamber (as above) and a plastic lid was placed on the flat. On germination, the lid was removed. After 2 weeks in the growth chamber, seedlings were transplanted into 3‐in. pots with Metro‐mix 360 potting mix and moved to a greenhouse. The greenhouse was maintained at a day/night temperature of 23/22 °C and supplemented with light to complete a 16 h photoperiod. Plants were allowed to recover from transplanting for 1 week prior to applications. A. thaliana seedlings were sprayed with test compounds at five rates with four replications. Tests included nontreated and solvent check controls. Individual compound doses varied and were based on plate test data or anecdotal potency. Compounds were formulated as technical material and were initially dissolved in 1 part 97:3 (v/v) acetone: dimethylsufoxide (DMSO) followed by 5 parts 1.5% (v/v) Agridex crop oil concentrate in distilled water to give a final concentration of 1.25% (v/v) Agridex. Formulated compounds were sprayed at a volume of 187 L ha^−1 at a spray height of 43 cm above the plants with an overhead Mandel track sprayer set with 8002 E Tee jet nozzle. Plants were treated at rosette stage just prior to or at initiation of bolting. After spray application, plants were allowed to dry then moved back to the greenhouse. Plants were grown in the greenhouse (same conditions as above) for 2 weeks until harvest. Visual injury/growth reduction observations were made at 7 and 14 days after treatment (DAT) and scored where 0% = no growth reduction and 100% = complete growth reduction or plant death. At 14 DAT the plants were harvested and dried to collect dry weight (DW) biomass.
(§3) The data collected in the foliar application of compounds generated a measure of sensitivity or dose response. The data was analyzed by regression in JMP 10.0 and fit to a nonlinear exponential three parameter fit model:
(§4) where a is the asymptote, b is the scale and c is the rate of growth. The model was used to determine the herbicidal dose that caused 50% reduction in growth (GR50). GR50 values were compared between mutant and WT to give an indication of fold resistance over WT (Table 3). A log‐logistic model[24] was also used to fit the data and gave similar GR50 values with greater standard errors without changing the pattern of responsiveness.

[3] = tested on: Arabidopsis thaliana afb5‐1 mutant line; type: in vivo; conditions: for GR50 (DW % of NT): dry weight at 14 DAT; for Resistance ratio (afb5‐1 vs WT), DW: ratio of dry weight GR50 values; for Resistance ratio (afb5‐1 vs WT), DW / Resistance ratio (afb5‐1 vs WT), visual injury: foliar application; for Resistance ratio (afb5‐1 vs WT), visual injury: ratio of visual injury GR50 values
Procedure: as §2, §3, §4

AtTIR1 [4] = molecular target: T2, AtTIR1 (Arabidopsis thaliana, UniProt Q570C0); assay: SPR relative binding (co-receptor complex formation with Aux/IAA7 degron), AtTIR1; conditions: 50 μM compound; for % of IAA binding: normalized to IAA = 100%
T2 construct: His10 (N, cleaved yes); eGFP (N, cleaved yes); FLAG (N, cleaved yes); made in house; host or cells: baculovirus; Trichoplusia ni Hi5 cells (virus generated in Sf9)
Procedure: as §1

AtAFB2 [5] = molecular target: T1, AtAFB2; assay: SPR relative binding (co-receptor complex formation with Aux/IAA7 degron), AtAFB2; conditions: 50 μM compound; for % of IAA binding: normalized to IAA = 100%
Procedure: as §1

AtTIR1 [6] = molecular target: T2, AtTIR1; assay: biochemical; type: binding
Procedure: as §1

AtAFB5 [7] = molecular target: T3, AtAFB5 (Arabidopsis thaliana, UniProt Q9LTX2); assay: biochemical; type: binding
T3 construct: His10 (N, cleaved yes); eGFP (N, cleaved yes); FLAG (N, cleaved yes); made in house; host or cells: baculovirus; Trichoplusia ni Hi5 cells (virus generated in Sf9)
Procedure: as §1

AtAFB5 [8] = molecular target: T3, AtAFB5; assay: SPR relative binding (co-receptor complex formation with Aux/IAA7 degron), AtAFB5; conditions: 50 μM compound; for % of IAA binding: normalized to IAA = 100%
Procedure: as §1

[9] = tested on: Arabidopsis thaliana afb5‐1 seedlings; assay: Root growth inhibition bioassay, afb5‐1 mutant; type: in vivo; conditions: afb5‐1 vs WT dose-response, 8 days
Procedure: (§5) A. thaliana seed was surface sterilized in 10 mL of 50% bleach and two drops of Tween‐20 for 12 min and rinsed six times with sterile water. Sterile growth media consisted of half‐strength Murashige and Skoog salts supplemented with 0.4% agar and 0.8% sucrose. In a laminar flow hood, 8 mL of liquid media was transferred to sterile test‐tubes placed in a heat block to maintain media in a liquid state. Compounds were previously diluted in 50/50 DMSO/water to a known molar concentration. A 50‐μL aliquot of diluted compound was added to each tube to give a specified final concentration, normally 10, 1, 0.1, 0.01 or 0.001 μM. A single tube was treated with solvent only as a control. Test compounds were mixed into the media by pipetting up and down three times, then 6 mL of media with test compound was added to one well in a six‐well plate, working from low‐to‐high concentration, and allowed to solidify in the laminar flow hood. Approximately 15 sterilized seeds were placed on the solidified surface and the remaining 2 mL of liquid media was added to cover and disperse seeds. Plates were sealed with paraffin and moved to a Conviron growth chamber set to 60% humidity, 25 °C and light intensity 100 μE m^2 s^−1 with a 16 h photoperiod. After 8 days primary root measurements of five random plants were taken by removing plants from media and measuring with a ruler. Treatments were compared against the solvent control to determine percentage root growth inhibition. Each experiment was run twice and averages were combined for analysis.

[10] = tested on: Arabidopsis thaliana Col‐0 seedlings; assay: Root growth inhibition bioassay, wild type; type: in vivo; conditions: 8 days, up to 10 μM
Procedure: as §5, with “Treatments were compared against the solvent control to determine percentage root growth inhibition. Each experiment was run twice and averages were combined for analysis.” left out

[11] = averaged equilibrium dissociation constant, SPR single cycle kinetics, read-out: Ave KD

T1 sequence (Q9LW29 whole entry, other chains not shown): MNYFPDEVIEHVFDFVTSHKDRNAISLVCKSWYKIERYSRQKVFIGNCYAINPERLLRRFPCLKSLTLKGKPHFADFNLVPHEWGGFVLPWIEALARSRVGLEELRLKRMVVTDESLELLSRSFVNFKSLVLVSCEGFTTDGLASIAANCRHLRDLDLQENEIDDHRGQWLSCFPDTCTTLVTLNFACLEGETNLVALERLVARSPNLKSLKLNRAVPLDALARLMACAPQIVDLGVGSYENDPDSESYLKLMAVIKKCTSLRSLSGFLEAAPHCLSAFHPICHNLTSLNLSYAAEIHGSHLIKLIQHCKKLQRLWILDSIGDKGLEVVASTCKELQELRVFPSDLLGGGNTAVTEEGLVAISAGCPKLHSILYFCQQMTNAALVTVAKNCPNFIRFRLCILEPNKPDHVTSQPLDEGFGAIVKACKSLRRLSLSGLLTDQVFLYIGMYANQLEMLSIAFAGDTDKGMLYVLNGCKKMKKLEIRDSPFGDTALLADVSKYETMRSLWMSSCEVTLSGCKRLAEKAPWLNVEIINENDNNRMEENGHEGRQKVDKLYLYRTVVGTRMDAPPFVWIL
T1 sequence (Q39255 whole entry partner, other chains not shown): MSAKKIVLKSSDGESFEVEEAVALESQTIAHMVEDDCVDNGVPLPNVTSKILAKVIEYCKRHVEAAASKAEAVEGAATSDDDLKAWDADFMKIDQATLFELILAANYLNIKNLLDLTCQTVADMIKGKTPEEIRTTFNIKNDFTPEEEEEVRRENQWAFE
T3 sequence (Q9LTX2 whole entry, other chains not shown): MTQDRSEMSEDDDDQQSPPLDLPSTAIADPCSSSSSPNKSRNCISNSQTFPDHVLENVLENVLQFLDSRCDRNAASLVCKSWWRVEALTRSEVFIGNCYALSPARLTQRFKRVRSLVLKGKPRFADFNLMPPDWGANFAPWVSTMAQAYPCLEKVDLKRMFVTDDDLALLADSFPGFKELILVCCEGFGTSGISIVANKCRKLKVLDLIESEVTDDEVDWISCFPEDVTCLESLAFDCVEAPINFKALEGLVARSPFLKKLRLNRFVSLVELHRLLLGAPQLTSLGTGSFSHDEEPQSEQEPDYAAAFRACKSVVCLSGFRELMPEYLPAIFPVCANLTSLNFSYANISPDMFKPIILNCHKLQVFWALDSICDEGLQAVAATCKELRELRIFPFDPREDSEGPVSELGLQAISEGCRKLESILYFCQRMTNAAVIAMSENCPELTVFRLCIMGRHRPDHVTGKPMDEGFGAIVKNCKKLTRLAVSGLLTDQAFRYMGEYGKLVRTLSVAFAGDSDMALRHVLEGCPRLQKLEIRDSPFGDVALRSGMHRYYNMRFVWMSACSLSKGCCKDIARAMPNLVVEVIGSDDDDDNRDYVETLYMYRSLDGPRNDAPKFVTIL
T3 sequence (Q39255 whole entry partner, other chains not shown): as the sequence (Q39255 whole entry partner, other chains not shown) above
T2 sequence (Q570C0 whole entry, other chains not shown): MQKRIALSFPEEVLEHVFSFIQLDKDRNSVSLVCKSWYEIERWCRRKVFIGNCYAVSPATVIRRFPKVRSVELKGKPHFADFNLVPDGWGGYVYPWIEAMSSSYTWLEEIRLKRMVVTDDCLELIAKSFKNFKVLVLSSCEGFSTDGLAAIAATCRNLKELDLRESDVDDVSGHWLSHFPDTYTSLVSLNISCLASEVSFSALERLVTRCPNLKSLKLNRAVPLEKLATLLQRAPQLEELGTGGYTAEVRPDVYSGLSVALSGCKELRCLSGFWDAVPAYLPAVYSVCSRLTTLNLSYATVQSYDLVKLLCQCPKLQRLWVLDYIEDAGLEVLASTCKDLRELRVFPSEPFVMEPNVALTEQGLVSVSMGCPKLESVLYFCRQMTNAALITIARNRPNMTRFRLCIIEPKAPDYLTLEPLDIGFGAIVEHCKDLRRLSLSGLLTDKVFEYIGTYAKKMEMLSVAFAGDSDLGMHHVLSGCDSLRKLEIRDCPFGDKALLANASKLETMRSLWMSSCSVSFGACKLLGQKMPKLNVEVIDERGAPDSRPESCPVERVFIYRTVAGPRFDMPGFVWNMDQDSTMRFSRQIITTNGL
T2 sequence (Q39255 whole entry partner, other chains not shown): as the sequence (Q39255 whole entry partner, other chains not shown) above

SMILES: COc1c(Cl)ccc(-c2cc(N)c(Cl)c(C(=O)O)n2)c1F [Halauxifen]
- Kd (AtAFB2 [1]; [11]): 333 µM
- GR50 (DW % of NT) [2]: 0.08 g ai ha^−1
- GR50 (visual injury) [2]: 0.4 g ai ha^−1
- GR50 (DW % of NT) ([3]; afb5‐1, foliar application): 0.6 g ai ha^−1
- GR50 (visual injury) ([3]; afb5‐1, foliar application): 2.4 g ai ha^−1
- Resistance ratio (afb5‐1 vs WT), DW [3]: 7.5
- Resistance ratio (afb5‐1 vs WT), visual injury [3]: 6
- % of IAA binding (AtTIR1 [4]): 10%
- % of IAA binding (AtAFB2 [5]): < 5%
- Kd (AtTIR1 [6]; [11]): 128 µM
- Kd (AtAFB5 [7]; [11]): 2.4 µM
- % of IAA binding (AtAFB5 [8]): 170%
- Resistance of afb5‐1 in root growth inhibition (in words) [9]: considerable resistance

SMILES: O=C(O)c1c(Cl)ccc2cc(Cl)cnc12 [Quinclorac]
- Foliar phytotoxicity (in words) [2]: did not provide much phytotoxicity
- GR50 (DW % of NT) [2]: 1015 g ai ha^−1
- Foliar phytotoxicity / resistance (in words) ([3]; afb5‐1, foliar application): did not provide much phytotoxicity
- GR50 (DW % of NT) ([3]; afb5‐1, foliar application): 1002 g ai ha^−1
- Resistance ratio (afb5‐1 vs WT), DW [3]: 1
- % of IAA binding (AtTIR1 [4]): < 5%
- % of IAA binding (AtAFB2 [5]): < 5%
- Primary root growth inhibition (in words) [10]: very low root growth inhibition
- % of IAA binding (AtAFB5 [8]): < 5%
- Resistance of afb5‐1 in root growth inhibition (in words) [9]: No resistance

SMILES: O=C(O)COc1ccc(Cl)cc1Cl [2,4‐D, 2,4‐dichlorophenoxyacetic acid]
- Kd (AtAFB2 [1]): 392 µM
- GR50 (DW % of NT) [2]: 3.9 g ai ha^−1
- GR50 (visual injury) [2]: 19.2 g ai ha^−1
- GR50 (DW % of NT) ([3]; afb5‐1, foliar application): 9.9 g ai ha^−1
- GR50 (visual injury) ([3]; afb5‐1, foliar application): 40.5 g ai ha^−1
- Resistance ratio (afb5‐1 vs WT), DW [3]: 2.5
- Resistance ratio (afb5‐1 vs WT), visual injury [3]: 2.1
- % of IAA binding (AtTIR1 [4]): 29%
- % of IAA binding (AtAFB2 [5]): 22%
- Kd (AtTIR1 [6]): 229 µM
- Kd (AtAFB5 [7]): 152 µM
- % of IAA binding (AtAFB5 [8]): 40%
- Resistance of afb5‐1 in root growth inhibition (in words) [9]: No resistance

SMILES: Nc1c(Cl)c(Cl)nc(C(=O)O)c1Cl [Picloram]
- GR50 (DW % of NT) [2]: 13.7 g ai ha^−1
- GR50 (visual injury) [2]: 202 g ai ha^−1
- GR50 (DW % of NT) ([3]; afb5‐1, foliar application): 996 g ai ha^−1
- Resistance ratio (afb5‐1 vs WT), DW [3]: 72.7
- Relative binding (in words) (AtTIR1 [4]; compared to IAA): relatively low binding
- Relative binding (in words) (AtAFB2 [5]; compared to IAA): relatively low binding
- Kd (AtTIR1 [6]): 319 µM
- Kd (AtAFB5 [7]): 107 µM
- Primary root growth inhibition (in words) [10]: low level of phytotoxicity
- Relative binding (in words) (AtAFB5 [8]; compared to IAA): relatively low binding
- Resistance of afb5‐1 in root growth inhibition (in words) [9]: considerable resistance
